The results in this text go back to the METLIN SMRT retention time set (Domingo-Almenara et al. 2019).

This series in a line: gradient 5% acetonitrile 3 min, to 50% in 2 min, to 85% in 15 min, held 3 min, 100 µL/min. Conditions: column: Zorbax Extend-C18 2.1 x 50 mm; eluents: water / acetonitrile, 0.1% formic acid. A digest of the protocol:
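The system's dead and dwell volumes were 40 μL and 900 μL, with a Zorbax Extend-C18 column (2.1 × 50 mm, 1.8 μm) run at 100 μL/min in water and acetonitrile containing 0.1% formic acid each. Pure standards were analyzed in mixtures of ~100 molecules by HPLC–quadrupole time-of-flight mass spectrometry in positive and negative ionization mode. Retention time was assigned from computationally picked, manually inspected adduct peaks.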
`COc1ccc(NC(=O)Nc2cccc(-c3ccc(N4CCOCC4)nn3)c2)cc1OC`: the RP-LC retention time came out at 586 s.

Regarding `CCOc1ccccc1C1CC(=O)NC(SCC(=O)Nc2nccs2)=C1C#N` (centres undefined), the RP-LC retention time is 734 s.

`Cc1cc(C)n(-c2ccc(C(=O)NCc3ccc(C)o3)cn2)n1` gave an RP-LC retention time of 848 s.

In turn, `COC(=O)C1=CN(c2ccc(OC)c(OC)c2)c2ccccc2S1(=O)=O` returned an RP-LC retention time of 763 s.

For `Fc1cc(F)cc(-c2nnc(Cc3nc(-c4ccncc4)no3)o2)c1`, the RP-LC retention time was found to be 780 s.

Take `CCn1nccc1-c1cccc(-c2noc(-c3cccc(OC)c3OC)n2)c1`: the RP-LC retention time stood at 1170 s.

`COc1cccc(-n2c(N3CCCC(C(=O)Nc4ccc(F)c(F)c4)C3)nc3ccsc3c2=O)c1` (centres undefined) returned an RP-LC retention time of 993 s.

`Cc1nc(-c2cn(C(C)C)c3ncccc23)sc1C(=O)NCc1ccccc1` showed an RP-LC retention time of 995 s.

On to `Cc1ccc(-n2cc3c(N4CCCC(C(=O)NCc5ccc(Cl)cc5)C4)ncnc3n2)cc1` (centres undefined), for which the RP-LC retention time worked out at 750 s.

`O=C(Nc1cnn(-c2ncc(N3CCSCC3)cn2)c1)C1CCCC1`: the RP-LC retention time was 737 s.

`Cc1cn2c(=O)c(S(=O)(=O)N3CCN(c4ccccn4)CC3)c(C)nc2s1`: the RP-LC retention time stood at 601 s.

As for `Cc1ccc(C(=O)NCC(=O)Nc2cc(-c3nc(C)cs3)sc2C)cc1`, the RP-LC retention time came out at 814 s.

For the compound `CC(=O)N1CCC2(CC1)CC(=O)c1ccc(O)c(O)c1O2`, the RP-LC retention time came to 585 s.

Regarding `CCN(CC)C(=O)Cn1nc2cc(-c3ccc(OC)cc3)nc(C)n2c1=O`, the RP-LC retention time amounted to 842 s.

For the compound `CCCN1CCN(C(=O)C2CCCN(S(=O)(=O)c3cc(-c4noc(CC)n4)cs3)C2)CC1` (centres undefined), the RP-LC retention time was 665 s.

Turning to `Cc1cccc(-c2ncccc2CNS(=O)(=O)c2ccc(Cl)s2)c1`, the RP-LC retention time worked out at 785 s.

As for `O=S(=O)(c1ccc(F)cc1F)N1CCN(Cc2cccc(F)c2)C2(CCOCC2)C1`, the RP-LC retention time amounted to 844 s.

The compound `COc1ccc2c(c1)C1(CCN(S(=O)(=O)c3ccc(Br)cc3)C1)C(=O)N2` (centres undefined) came in with an RP-LC retention time of 881 s.

Compound `COCCC1CCN(C(=O)c2nccc3ccccc23)CC1` came in with an RP-LC retention time of 719 s.

Compound `COc1ccc(-c2nnc(-c3ccccc3)o2)cc1S(=O)(=O)N1CCCCCC1` displayed an RP-LC retention time of 1070 s.

Regarding `Cn1cnc2c(C(=O)NC3CCCCC3)nn(-c3cccc(Cl)c3)c2c1=O`, the RP-LC retention time amounted to 975 s.

As for `Cc1nnc(CNC(=O)C(=O)Nc2ccc3c(c2)OCCO3)o1`, the RP-LC retention time was 615 s.

`Cn1nnc2ccc(-c3noc(-c4cccc(Cl)c4)n3)cc21` had an RP-LC retention time of 1120 s.

With `CCc1ccc2[nH]c3c(c(=O)c2c1)CN(CC(=O)Nc1ccc(OC)c(Cl)c1)CC3`, the RP-LC retention time stood at 636 s.

Compound `Cc1nn(C)c(C)c1CCC(=O)N1CCN(S(C)(=O)=O)CC1` had an RP-LC retention time of 543 s.

For `NC(=O)C1CCN(C(=O)CN2CCN(c3ccccc3F)CC2)CC1`, the RP-LC retention time came to 580 s.

`Cc1ccc2c(c1)C1CC(C)(O2)N(c2cccc(C(=O)O)c2)C(=O)N1` (centres undefined) displayed an RP-LC retention time of 912 s.

Consider `COc1ccc(Cl)cc1S(=O)(=O)N1CCC(n2cnnc2-c2ccccc2)CC1`, for which the RP-LC retention time amounted to 825 s.

Compound `Cc1cc(F)ccc1NS(=O)(=O)c1ccc(-c2nnc(C3CCC3)o2)o1` had an RP-LC retention time of 963 s.

`Cc1cc(Cl)ccc1S(=O)(=O)N1CCCC(Cn2cnc3cccnc32)C1` (centres undefined) had an RP-LC retention time of 853 s.

As to `COc1ccccc1CC(=O)Nc1cccn2c(C)nnc12`, the RP-LC retention time was determined as 678 s.

For `Cn1cc(C2=CCN(C(=O)Cc3ccccc3F)CC2)c2cccnc21`, the RP-LC retention time worked out at 855 s.

As to `CCc1nc(OCC(=O)Nc2ccc(Cl)c(Cl)c2)c2ccccc2n1`, the RP-LC retention time came to 958 s.

`COc1cc2c(cc1CNC(=O)Cn1c(C)nc3cc4c(cc31)OCCO4)OCCCO2`: the RP-LC retention time was 643 s.

Turning to `O=C(NCc1ccccn1)c1ccc2c(c1)N(CC(=O)N1CCCC1)C(=O)CO2`, the RP-LC retention time is 573 s.

On to `COc1ccc(-c2ncc3c(n2)CCN(C(=O)c2ccc(C)c(C)c2)C3)cc1`, for which the RP-LC retention time amounted to 1030 s.

For `Cc1ccc(NC(=O)C2CCCN(c3nc4ccccc4nc3C(F)(F)F)C2)c(Cl)c1` (centres undefined), the RP-LC retention time is 1350 s.

Compound `CN(CC1CCOCC1)C(=O)Nc1ccc(C(F)(F)F)cc1` had an RP-LC retention time of 812 s.

`Cc1cc(=O)n(CC(=O)Nc2ccc(F)c(Cl)c2)c(-c2ccccc2)n1` yielded an RP-LC retention time of 1090 s.

In the case of `Cc1ncc([N+](=O)[O-])n1CC(O)CCl` (centres undefined), the RP-LC retention time amounted to 677 s.

`CC1CCN(C(=O)C2CC(=O)N(CCc3c[nH]c4ccc(Cl)cc34)C2)CC1` (centres undefined) returned an RP-LC retention time of 855 s.

`CC(C)C(=O)Nc1cc(-c2ccccc2)nn(C(C)C(=O)Nc2ccccc2Cl)c1=O` (centres undefined) yielded an RP-LC retention time of 1170 s.

`O=S(=O)(NCCc1ccccc1)c1ccccc1-c1nc(-c2ccccc2)no1` returned an RP-LC retention time of 1210 s.

For the compound `CC1CCC2(CC1)NC(=O)N(CC(=O)NCc1ccc(F)cc1)C2=O` (centres undefined), the RP-LC retention time was 801 s.

In the case of `O=C(NCc1ccc2c(c1)OCO2)C1CCCN(c2nccn3nc(-c4ccc(F)cc4)cc23)C1` (centres undefined), the RP-LC retention time is 872 s.

`COc1cccc(-c2ccc3nc(N4CCC(C(N)=O)CC4)sc3n2)c1` returned an RP-LC retention time of 745 s.

`COc1ccc(N2CCN(c3cc(SCC(=O)Nc4cc(Cl)ccc4C)ncn3)CC2)cc1`: the RP-LC retention time is 1130 s.

Regarding `O=C(Nc1cnc2c(c1)CCC2)C1CCCC1`, the RP-LC retention time is 522 s.

With `Cc1cc(S(=O)(=O)NCC2CCN(C(=O)NC(C)(C)C)CC2)c(Cl)cc1Cl`, the RP-LC retention time turned out to be 927 s.

In the case of `COc1ccc(-c2cn3c(CC(=O)N4CCN(c5ccc(F)cc5)CC4)csc3n2)cc1OC`, the RP-LC retention time turned out to be 743 s.

On to `Cc1cc(C)n(-c2ccnc(N3CCC(C(=O)NCCc4ccccc4)CC3)n2)n1`, for which the RP-LC retention time was found to be 839 s.

For the compound `C=CCn1c(=O)c2ccccc2n(Cc2nc(-c3ccccc3Br)no2)c1=O`, the RP-LC retention time turned out to be 1040 s.

In turn, `CCOc1ccc(C2C(=O)N(C3CCCCCC3)CC(=O)N2Cc2ccco2)cc1OC` (centres undefined) yielded an RP-LC retention time of 963 s.

Regarding `O=C(NCCc1csc(-c2ccc(F)cc2)n1)c1ccc2nsnc2c1`, the RP-LC retention time was 876 s.

For the compound `Cn1c(=O)cc(SCC(=O)N2CCN(c3ccccn3)CC2)c2ccc(Cl)cc21`, the RP-LC retention time turned out to be 639 s.

`Cc1ccc(S(=O)(=O)N2C(=O)CCC2C(=O)N(C)C2CCCCC2)cc1` (centres undefined) returned an RP-LC retention time of 916 s.

With `CCOc1ccc(CNC(=O)c2cc(S(=O)(=O)N3CCCC3)c(C)n2C)cc1`, the RP-LC retention time worked out at 902 s.

For `O=C(NCCn1c(-c2ccc(F)cc2)nc2cccnc21)NCc1ccccc1`, the RP-LC retention time came to 684 s.

`CNS(=O)(=O)c1c[nH]c(=O)[nH]c1=O` had an RP-LC retention time of 624 s.

Regarding `O=C(NCCOc1cccc2cccnc12)c1cccc(-n2cnnn2)c1`, the RP-LC retention time came out at 574 s.

In turn, `CCSc1nnc(-c2nn(C)c3c2CN(C(=O)c2ccccc2Cl)CC3)n1C` displayed an RP-LC retention time of 747 s.

For `Cc1ccc(NC(=O)Cn2nc(-n3cccc3)c3c(C)cc(C)nc32)c(C)c1`, the RP-LC retention time was 1080 s.

The compound `O=C1CC(c2noc(-c3ccccc3)n2)CN1Cc1ccccc1` (centres undefined) returned an RP-LC retention time of 642 s.

In the case of `CCn1c(C(=O)NCCCN2CCCC(C)C2)c(N2CCCC2=O)c2cc(F)ccc21` (centres undefined), the RP-LC retention time is 660 s.

`CCc1cc(=O)n(CC(=O)NCc2ccc3c(c2)OCO3)c(N2CCOCC2)n1` gave an RP-LC retention time of 677 s.

The compound `CCN1C(=O)c2cc(C(=O)Nc3ccc(C)cc3C)nn2CC1(C)C(=O)NC1CCCC1` (centres undefined) registered an RP-LC retention time of 800 s.

In the case of `CC(C)NC(=O)N1CCOc2ccc(CCC(=O)O)cc2C1`, the RP-LC retention time was found to be 671 s.

Compound `COc1cccc(CNC(=O)COc2cc(C)nc(N3CCN(c4ccccc4)CC3)n2)c1OC` registered an RP-LC retention time of 783 s.

Regarding `COc1ccc(CC(=O)N2C[C@@H]3C[C@H]2C[C@@H]3NC(=O)c2cccnc2)cc1Cl`, the RP-LC retention time was determined as 614 s.

The compound `CCN1C(=O)COc2ccc(-c3nc(NC(=O)c4cccs4)sc3C)cc21` gave an RP-LC retention time of 990 s.

`Cc1ccccc1-c1nc(-c2ccc(-n3ccnc3)nc2)no1` displayed an RP-LC retention time of 814 s.

Take `Cc1ccc(CNC(=O)N2CCCC(OCc3nc(C)no3)C2)cc1` (centres undefined): the RP-LC retention time worked out at 770 s.

In turn, `CSc1ccc(C2c3[nH]c4ccccc4c3CCN2C(=O)c2cccs2)cc1` (centres undefined) showed an RP-LC retention time of 1220 s.

Regarding `O=C1CCCC(=O)N1CCS(=O)(=O)Nc1ccc(Cl)c(N2CCCS2(=O)=O)c1`, the RP-LC retention time stood at 657 s.

As to `COC(=O)c1c(NC(=O)c2cnn(-c3ccccc3)c2C)sc2c1CCN(C(C)=O)C2`, the RP-LC retention time turned out to be 812 s.

`CCCCN(C)C(=O)C1CCN(S(=O)(=O)c2ccc3c(c2)CCCC(=O)N3)CC1` gave an RP-LC retention time of 719 s.

In turn, `CCOc1ccc(/C=C/C(=O)Nc2nc(-c3ccc4c(c3)NC(=O)C(C)O4)c(C)s2)cc1OC` (centres undefined) had an RP-LC retention time of 980 s.

For the compound `Cc1ccc(S(=O)(=O)N(C)C)cc1-c1nnc(-c2ccccc2)o1`, the RP-LC retention time was determined as 971 s.

Compound `CC(C)OCCCNC(=O)CCCn1c2ccccc2c2cnn(C)c(=O)c21` showed an RP-LC retention time of 773 s.
